Laboratory results from ChEMBL document CHEMBL5696441 (Nat Chem Biol, 2011).

What was measured:
[1] = molecular target: High affinity nerve growth factor receptor (Homo sapiens) (UniProt P04629); experiment: Inhibition of TRKA (unknown origin) assessed as remaining activity at 1 uM by Kinome scan method relative to control
[2] = system: Epidermal growth factor receptor (Homo sapiens), P00533 [UNDEFINED MUTATION]; experiment: Inhibition of EGFR S752-I759del mutant (unknown origin) assessed as remaining activity at 1 uM by Kinome scan method relative to control
[3] = molecular target: Focal adhesion kinase 1 (Homo sapiens) (UniProt Q05397); experiment: Inhibition of FAK (unknown origin) assessed as remaining activity at 1 uM by Kinome scan method relative to control
Focal adhesion kinase 1 (Homo sapiens), sequence (Q05397 2-1052 limits assumed): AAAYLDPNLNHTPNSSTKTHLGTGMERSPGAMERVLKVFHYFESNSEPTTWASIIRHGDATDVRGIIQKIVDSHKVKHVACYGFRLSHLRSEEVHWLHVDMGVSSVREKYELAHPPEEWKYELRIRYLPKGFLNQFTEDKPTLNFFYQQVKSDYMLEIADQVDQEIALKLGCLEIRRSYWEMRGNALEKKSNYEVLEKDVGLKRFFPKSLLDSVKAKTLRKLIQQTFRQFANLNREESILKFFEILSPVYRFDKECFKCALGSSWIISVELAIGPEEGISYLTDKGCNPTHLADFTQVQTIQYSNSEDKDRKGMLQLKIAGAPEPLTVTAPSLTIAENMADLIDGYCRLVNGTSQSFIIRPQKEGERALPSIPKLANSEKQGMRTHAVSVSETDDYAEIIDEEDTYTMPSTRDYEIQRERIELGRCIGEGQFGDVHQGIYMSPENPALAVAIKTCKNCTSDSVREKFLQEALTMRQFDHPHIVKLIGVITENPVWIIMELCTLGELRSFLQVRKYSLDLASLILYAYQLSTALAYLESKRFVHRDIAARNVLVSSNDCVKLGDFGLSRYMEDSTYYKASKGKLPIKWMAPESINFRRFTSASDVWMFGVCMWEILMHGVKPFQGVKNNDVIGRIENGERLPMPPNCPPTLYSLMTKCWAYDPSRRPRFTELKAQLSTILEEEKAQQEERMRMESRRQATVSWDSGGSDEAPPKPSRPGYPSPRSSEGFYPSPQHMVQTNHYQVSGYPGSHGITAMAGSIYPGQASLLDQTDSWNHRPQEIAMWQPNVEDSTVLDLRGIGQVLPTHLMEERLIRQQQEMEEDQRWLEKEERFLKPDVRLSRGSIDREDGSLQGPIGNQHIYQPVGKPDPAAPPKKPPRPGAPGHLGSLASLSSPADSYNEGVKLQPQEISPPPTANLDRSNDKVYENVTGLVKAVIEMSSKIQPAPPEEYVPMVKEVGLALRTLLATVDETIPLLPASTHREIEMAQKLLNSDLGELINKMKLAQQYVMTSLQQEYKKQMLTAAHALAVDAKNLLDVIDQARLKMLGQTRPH

[4] = molecular target: Rhodopsin kinase GRK7 (Homo sapiens) (UniProt Q8WTQ7); experiment: Inhibition of GRK7 (unknown origin) assessed as remaining activity at 1 uM by Kinome scan method relative to control
Rhodopsin kinase GRK7 (Homo sapiens), sequence (Q8WTQ7 whole entry): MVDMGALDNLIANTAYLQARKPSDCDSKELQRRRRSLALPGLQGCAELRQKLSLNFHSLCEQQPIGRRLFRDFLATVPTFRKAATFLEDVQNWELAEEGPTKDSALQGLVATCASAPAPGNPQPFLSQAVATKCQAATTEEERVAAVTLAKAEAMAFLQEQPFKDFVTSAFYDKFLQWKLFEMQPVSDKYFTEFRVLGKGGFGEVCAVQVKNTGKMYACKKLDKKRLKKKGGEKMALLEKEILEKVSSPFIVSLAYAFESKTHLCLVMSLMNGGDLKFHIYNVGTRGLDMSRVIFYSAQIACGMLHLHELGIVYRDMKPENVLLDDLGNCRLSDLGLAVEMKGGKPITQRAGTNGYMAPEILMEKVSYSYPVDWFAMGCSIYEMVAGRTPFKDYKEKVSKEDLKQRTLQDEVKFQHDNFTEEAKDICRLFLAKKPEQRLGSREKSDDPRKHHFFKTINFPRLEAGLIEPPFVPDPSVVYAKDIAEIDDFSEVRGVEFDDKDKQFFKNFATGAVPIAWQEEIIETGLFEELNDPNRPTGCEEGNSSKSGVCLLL

[5] = molecular target: Protein kinase C beta type (Homo sapiens) (UniProt P05771); experiment: Inhibition of human PKCbeta1 assessed as residual activity at 1 uM using 3xChocktide-PKC(19-31) as substrate in presence of 33P-ATP by ProQinase assay relative to control
Protein kinase C beta type (Homo sapiens), sequence (P05771 2-671 limits assumed): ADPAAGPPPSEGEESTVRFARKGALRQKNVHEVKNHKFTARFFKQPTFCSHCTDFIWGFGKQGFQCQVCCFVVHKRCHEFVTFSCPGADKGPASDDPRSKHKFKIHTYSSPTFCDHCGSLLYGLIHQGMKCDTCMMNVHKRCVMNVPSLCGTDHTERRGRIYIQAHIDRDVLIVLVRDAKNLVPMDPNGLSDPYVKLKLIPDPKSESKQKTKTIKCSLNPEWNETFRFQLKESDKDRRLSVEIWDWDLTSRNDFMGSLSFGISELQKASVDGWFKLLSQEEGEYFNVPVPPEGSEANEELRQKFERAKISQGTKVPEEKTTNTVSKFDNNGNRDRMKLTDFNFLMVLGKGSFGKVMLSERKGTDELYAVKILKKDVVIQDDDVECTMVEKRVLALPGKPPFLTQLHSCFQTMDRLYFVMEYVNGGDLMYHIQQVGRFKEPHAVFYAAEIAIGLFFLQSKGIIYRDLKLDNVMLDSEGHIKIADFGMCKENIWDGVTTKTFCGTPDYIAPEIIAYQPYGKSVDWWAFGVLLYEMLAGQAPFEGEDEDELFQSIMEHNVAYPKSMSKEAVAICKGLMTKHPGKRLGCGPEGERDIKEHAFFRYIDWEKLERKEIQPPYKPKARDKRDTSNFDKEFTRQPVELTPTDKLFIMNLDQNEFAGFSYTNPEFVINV

[6] = molecular target: Interleukin-1 receptor-associated kinase 4 (Homo sapiens) (UniProt Q9NWZ3); experiment: Inhibition of human IRAK4 assessed as residual activity at 1 uM using RB-CTF as substrate in presence of 33P-ATP by ProQinase assay relative to control
Interleukin-1 receptor-associated kinase 4 (Homo sapiens), sequence (Q9NWZ3 whole entry): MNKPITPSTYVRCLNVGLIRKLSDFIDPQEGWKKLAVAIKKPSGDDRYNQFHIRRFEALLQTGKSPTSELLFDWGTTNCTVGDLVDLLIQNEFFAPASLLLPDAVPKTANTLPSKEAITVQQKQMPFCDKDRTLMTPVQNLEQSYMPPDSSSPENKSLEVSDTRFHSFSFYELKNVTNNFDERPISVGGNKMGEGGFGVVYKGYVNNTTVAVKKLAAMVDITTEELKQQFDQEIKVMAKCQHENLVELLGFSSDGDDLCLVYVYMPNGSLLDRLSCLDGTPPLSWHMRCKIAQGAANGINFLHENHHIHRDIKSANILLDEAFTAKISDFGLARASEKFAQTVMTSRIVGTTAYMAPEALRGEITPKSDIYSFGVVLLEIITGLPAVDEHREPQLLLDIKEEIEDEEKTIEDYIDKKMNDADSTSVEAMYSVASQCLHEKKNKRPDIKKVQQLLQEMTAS

[7] = molecular target: MAP kinase-activated protein kinase 3 (Homo sapiens) (UniProt Q16644); experiment: Inhibition of human MAPKAPK3 assessed as residual activity at 1 uM using bio-4xCHKT as substrate in presence of 33P-ATP by ProQinase assay relative to control
MAP kinase-activated protein kinase 3 (Homo sapiens), sequence (Q16644 whole entry, looked up): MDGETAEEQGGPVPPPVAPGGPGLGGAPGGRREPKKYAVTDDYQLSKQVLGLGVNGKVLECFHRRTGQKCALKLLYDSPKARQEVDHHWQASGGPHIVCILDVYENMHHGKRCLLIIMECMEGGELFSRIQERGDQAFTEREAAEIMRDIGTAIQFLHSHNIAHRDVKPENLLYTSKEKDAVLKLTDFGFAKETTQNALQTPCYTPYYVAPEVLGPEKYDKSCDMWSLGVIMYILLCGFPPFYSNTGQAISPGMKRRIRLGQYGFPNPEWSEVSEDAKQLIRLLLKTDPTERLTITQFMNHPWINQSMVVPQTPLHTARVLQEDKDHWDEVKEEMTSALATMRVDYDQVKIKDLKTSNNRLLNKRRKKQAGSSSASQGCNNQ

[8] = molecular target: T1, Serine/threonine-protein kinase D3 (Homo sapiens) (UniProt O94806); experiment: Inhibition of human PKCnu assessed as residual activity at 1 uM using bio-4xCHKT as substrate in presence of 33P-ATP by ProQinase assay relative to control
T1 sequence (whole entry): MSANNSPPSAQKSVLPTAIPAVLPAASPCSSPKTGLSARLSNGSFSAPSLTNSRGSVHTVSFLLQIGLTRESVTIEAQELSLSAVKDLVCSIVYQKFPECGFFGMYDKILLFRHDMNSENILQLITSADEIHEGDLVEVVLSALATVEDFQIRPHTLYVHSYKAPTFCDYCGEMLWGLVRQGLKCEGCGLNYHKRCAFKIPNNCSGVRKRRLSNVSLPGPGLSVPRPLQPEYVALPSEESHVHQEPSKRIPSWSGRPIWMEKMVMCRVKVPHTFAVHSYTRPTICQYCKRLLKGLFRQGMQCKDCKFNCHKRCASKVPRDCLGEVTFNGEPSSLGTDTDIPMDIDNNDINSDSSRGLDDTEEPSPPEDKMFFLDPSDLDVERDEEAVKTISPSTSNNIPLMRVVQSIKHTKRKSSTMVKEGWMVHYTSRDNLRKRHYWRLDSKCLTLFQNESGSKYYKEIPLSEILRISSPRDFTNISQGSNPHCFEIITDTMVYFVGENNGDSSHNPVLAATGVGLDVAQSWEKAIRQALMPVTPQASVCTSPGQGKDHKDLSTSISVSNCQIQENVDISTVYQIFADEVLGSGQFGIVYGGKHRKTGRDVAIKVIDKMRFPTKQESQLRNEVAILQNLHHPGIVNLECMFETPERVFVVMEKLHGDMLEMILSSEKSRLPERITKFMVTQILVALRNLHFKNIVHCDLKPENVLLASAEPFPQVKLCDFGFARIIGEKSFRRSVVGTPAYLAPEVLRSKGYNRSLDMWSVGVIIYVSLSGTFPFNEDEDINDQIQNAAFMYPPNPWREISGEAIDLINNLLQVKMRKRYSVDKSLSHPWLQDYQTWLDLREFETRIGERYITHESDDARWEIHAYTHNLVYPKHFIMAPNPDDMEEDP

[9] = system: Mast/stem cell growth factor receptor Kit (Homo sapiens), P10721 [L576P]; experiment: Inhibition of KIT L576P mutant (unknown origin) assessed as remaining activity at 1 uM by Kinome scan method relative to control
[10] = molecular target: CDK9/Cyclin K (Homo sapiens) (UniProt P50750+O75909); experiment: Inhibition of human CDK9/CycK assessed as residual activity at 1 uM using RBER-CHKtide as substrate in presence of 33P-ATP by ProQinase assay relative to control; assay type: protein-complex assay
[11] = Anti-inflammatory activity against human derived medium respond PBMC cells assessed as inhibition in stimulated IL-8 cytokine release incubated for 2 hrs in the presence of LPS/SEB/aCD28 by Luminex based sandwich immunoassay; assay type: functional, cell-based
[12] = molecular target: T2, Serine/threonine-protein kinase TAO3 (Homo sapiens) (UniProt Q9H2K8); experiment: Inhibition of human TAOK3 assessed as residual activity at 1 uM using 3xChocktide-PKC(19-31) as substrate in presence of 33P-ATP by ProQinase assay relative to control
T2 sequence (whole entry): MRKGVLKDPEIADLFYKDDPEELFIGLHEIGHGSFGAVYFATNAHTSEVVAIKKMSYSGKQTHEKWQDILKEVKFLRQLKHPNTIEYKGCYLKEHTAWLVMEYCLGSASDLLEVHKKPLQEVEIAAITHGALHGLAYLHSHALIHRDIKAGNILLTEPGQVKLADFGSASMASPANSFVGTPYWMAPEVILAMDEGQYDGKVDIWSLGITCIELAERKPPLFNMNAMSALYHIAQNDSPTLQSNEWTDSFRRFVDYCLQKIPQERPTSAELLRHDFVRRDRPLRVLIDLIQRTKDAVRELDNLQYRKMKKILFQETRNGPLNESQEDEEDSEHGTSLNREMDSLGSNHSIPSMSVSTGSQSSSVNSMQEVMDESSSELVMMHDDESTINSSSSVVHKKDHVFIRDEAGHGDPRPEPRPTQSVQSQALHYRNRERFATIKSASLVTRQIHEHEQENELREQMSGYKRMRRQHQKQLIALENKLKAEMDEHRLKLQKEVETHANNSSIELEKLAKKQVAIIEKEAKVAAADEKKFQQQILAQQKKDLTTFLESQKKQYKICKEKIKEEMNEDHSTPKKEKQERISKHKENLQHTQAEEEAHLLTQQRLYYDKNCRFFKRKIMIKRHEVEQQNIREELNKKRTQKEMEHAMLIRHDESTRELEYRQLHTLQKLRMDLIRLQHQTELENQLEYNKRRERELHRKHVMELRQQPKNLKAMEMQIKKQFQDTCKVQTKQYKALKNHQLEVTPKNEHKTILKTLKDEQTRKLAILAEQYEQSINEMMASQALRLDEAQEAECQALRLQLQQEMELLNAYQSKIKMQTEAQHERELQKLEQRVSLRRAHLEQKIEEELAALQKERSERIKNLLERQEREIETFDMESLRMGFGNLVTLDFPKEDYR

[13] = molecular target: Calcium/calmodulin-dependent protein kinase type 1D (Homo sapiens) (UniProt Q8IU85); experiment: Inhibition of CAMK1D (unknown origin) assessed as remaining activity at 1 uM by Kinome scan method relative to control
Calcium/calmodulin-dependent protein kinase type 1D (Homo sapiens), sequence (Q8IU85 whole entry, looked up): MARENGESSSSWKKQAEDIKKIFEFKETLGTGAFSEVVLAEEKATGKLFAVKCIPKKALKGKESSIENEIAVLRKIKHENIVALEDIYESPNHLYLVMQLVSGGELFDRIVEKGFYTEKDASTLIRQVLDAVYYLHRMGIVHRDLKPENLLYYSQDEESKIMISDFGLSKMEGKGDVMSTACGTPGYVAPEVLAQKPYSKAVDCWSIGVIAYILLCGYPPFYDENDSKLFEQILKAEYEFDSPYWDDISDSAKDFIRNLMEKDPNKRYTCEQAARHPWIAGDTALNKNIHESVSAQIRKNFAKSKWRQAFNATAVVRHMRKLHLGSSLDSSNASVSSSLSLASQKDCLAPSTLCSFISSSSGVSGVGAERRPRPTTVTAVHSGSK

High affinity nerve growth factor receptor (Homo sapiens), sequence (P04629 33-796 limits assumed): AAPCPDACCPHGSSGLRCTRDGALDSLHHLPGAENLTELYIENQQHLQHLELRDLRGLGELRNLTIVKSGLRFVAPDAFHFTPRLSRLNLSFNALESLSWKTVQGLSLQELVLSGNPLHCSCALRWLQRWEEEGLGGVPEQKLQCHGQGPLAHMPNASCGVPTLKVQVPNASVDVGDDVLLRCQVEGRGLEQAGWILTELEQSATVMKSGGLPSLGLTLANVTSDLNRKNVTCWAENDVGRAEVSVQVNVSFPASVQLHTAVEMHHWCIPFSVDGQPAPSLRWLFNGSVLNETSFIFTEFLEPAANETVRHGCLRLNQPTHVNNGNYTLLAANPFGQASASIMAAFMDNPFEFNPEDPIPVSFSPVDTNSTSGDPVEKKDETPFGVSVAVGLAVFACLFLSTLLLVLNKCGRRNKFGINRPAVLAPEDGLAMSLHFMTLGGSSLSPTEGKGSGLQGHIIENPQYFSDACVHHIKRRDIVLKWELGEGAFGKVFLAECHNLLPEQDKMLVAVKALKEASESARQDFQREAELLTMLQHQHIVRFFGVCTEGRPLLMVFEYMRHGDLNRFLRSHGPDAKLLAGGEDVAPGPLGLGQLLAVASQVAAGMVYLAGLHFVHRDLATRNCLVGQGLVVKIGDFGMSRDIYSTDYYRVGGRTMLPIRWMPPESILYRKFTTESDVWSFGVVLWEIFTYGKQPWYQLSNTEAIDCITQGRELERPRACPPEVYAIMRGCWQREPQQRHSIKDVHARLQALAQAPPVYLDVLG

`O=C1c2ccc(Nc3ccc(F)cc3F)cc2CCc2ccc(OC[C@H](O)CO)cc21` [Skepinone-L] showed an Activity [1] of 88%, an Activity [2] of 100% and an Activity [3] of 100%. It also gave an Activity [4] of 100%, an Activity [5] of 103% and an Activity [6] of 104%. The Activity [7] was 95%, the Activity [8] was 92% and the Activity [9] was 98%. For the same compound, the Activity [10] was 92%, the IC50 [11] was 60 nM and the Activity [12] was 102%. For the same compound, the Activity [13] was 99%.
